Assay results as given in PMC9012467 (Science Advances, 2022).

Key:
[1] = biological target: T1, PPPDE2 (Homo sapiens, UniProt Q6ICB0); experiment: fluorogenic assay coupled to beta-glucosidase; type: biochemical; conditions: 10 μM substrate, 20 μg beta-glucosidase, pH 5.0, 37°C
T1 sequence (Q6ICB0 1-168): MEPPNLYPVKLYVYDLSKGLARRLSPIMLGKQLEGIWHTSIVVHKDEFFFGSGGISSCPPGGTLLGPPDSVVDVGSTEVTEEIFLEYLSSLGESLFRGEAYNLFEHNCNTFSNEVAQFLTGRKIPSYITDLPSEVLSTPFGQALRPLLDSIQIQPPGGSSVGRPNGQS

[2] = biological target: PPPDE1 (Homo sapiens, UniProt Q9BSY9); experiment: fluorogenic assay coupled to beta-glucosidase; type: biochemical; conditions: 10 μM substrate, 20 μg beta-glucosidase, pH 5.0, 37°C
Sequence of PPPDE1 (Q9BSY9 whole entry): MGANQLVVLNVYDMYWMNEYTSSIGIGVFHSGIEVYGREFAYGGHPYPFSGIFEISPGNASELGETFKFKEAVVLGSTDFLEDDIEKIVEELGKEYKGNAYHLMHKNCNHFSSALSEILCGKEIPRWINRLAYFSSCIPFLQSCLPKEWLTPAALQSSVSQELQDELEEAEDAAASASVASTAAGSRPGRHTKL

For CCCCCCCCCCCCCCCC(=O)SC[C@H]1O[C@@H](Oc2ccc3c(C)cc(=O)oc3c2)[C@H](O)[C@@H](O)[C@@H]1O [MU-6S-palm-βGlc, 4-methylumbelliferyl 6-thio-palmitate-β-D-glucopyranoside], the “fluorogenic assay coupled to beta-glucosidase” value [1] was “both showed high S-depalmitoylation activity by assaying DPP-5 or MU-6S-palm-βGlc” and the “fluorogenic assay coupled to beta-glucosidase” value [2] was “both showed high S-depalmitoylation activity by assaying DPP-5 or MU-6S-palm-βGlc”.
